In brackets after ≈: the same amount, converted by molar mass.
Key:
[1] = test system: Mycobacterium tuberculosis; experiment: Antimycobacterial activity against dormant state of Mycobacterium tuberculosis H37Ra by two fold dilution method; type: functional
[2] = test system: Mycobacterium tuberculosis; experiment: Antimycobacterial activity against dormant state of Mycobacterium tuberculosis H37Ra assessed as growth inhibition at 30 ug/ml after 12 days by XTT reduction menadione assay relative to control; type: functional; settings: 288 h, read-out: GI
[3] = test system: Mycobacterium tuberculosis; experiment: Antimycobacterial activity against dormant state of Mycobacterium tuberculosis H37Ra assessed as growth inhibition at 10 ug/ml after 12 days by XTT reduction menadione assay relative to control; type: functional; settings: 288 h, read-out: GI
[4] = test system: Mycobacterium tuberculosis; experiment: Antimycobacterial activity against dormant state of Mycobacterium tuberculosis H37Ra assessed as growth inhibition at 3 ug/ml after 12 days by XTT reduction menadione assay relative to control; type: functional; settings: 288 h, read-out: GI
[5] = Cytotoxicity against human MCF7 cells assessed as growth inhibition at 30 ug/ml after 48 hrs by MTT assay relative to control; type: cell-based; settings: read-out: GI
[6] = Cytotoxicity against human MCF7 cells assessed as growth inhibition at 10 ug/ml after 48 hrs by MTT assay relative to control; type: cell-based; settings: read-out: GI
[7] = Cytotoxicity against human MCF7 cells assessed as growth inhibition at 3 ug/ml after 48 hrs by MTT assay relative to control; type: cell-based; settings: read-out: GI
[8] = Cytotoxicity against human A549 cells assessed as growth inhibition at 30 ug/ml after 48 hrs by MTT assay relative to control; type: cell-based; settings: read-out: GI
[9] = Cytotoxicity against human A549 cells assessed as growth inhibition at 10 ug/ml after 48 hrs by MTT assay relative to control; type: cell-based; settings: read-out: GI
[10] = Cytotoxicity against human A549 cells assessed as growth inhibition at 3 ug/ml after 48 hrs by MTT assay relative to control; type: cell-based; settings: read-out: GI
[11] = Cytotoxicity against human HCT116 cells assessed as growth inhibition at 30 ug/ml after 48 hrs by MTT assay relative to control; type: cell-based, HCT-116; settings: read-out: GI
[12] = Cytotoxicity against human HCT116 cells assessed as growth inhibition at 10 ug/ml after 48 hrs by MTT assay relative to control; type: cell-based, HCT-116; settings: read-out: GI
[13] = Cytotoxicity against human HCT116 cells assessed as growth inhibition at 3 ug/ml after 48 hrs by MTT assay relative to control; type: cell-based, HCT-116; settings: read-out: GI
[14] = (§1) Cytotoxicity against human MCF7 cells assessed as growth inhibition after 48 hrs by MTT assay; type: cell-based; settings: MCF7 cells
MCF7 = experiment: as §1; type: cell-based; settings: mcf7, 48 h
[15] = (§2) Cytotoxicity against human A549 cells assessed as growth inhibition after 48 hrs by MTT assay; type: cell-based; settings: A549 cells
A549 = experiment: as §2; type: cell-based; settings: a549, 48 h
[16] = (§3) Cytotoxicity against human HCT116 cells assessed as growth inhibition after 48 hrs by MTT assay; type: cell-based, HCT-116; settings: HCT116 cells
HCT-116 = experiment: as §3; type: cell-based; settings: hct-116, 48 h
[17] = Selectivity index, ratio of GI90 for human MCF7 cells to MIC90 for dormant state of Mycobacterium tuberculosis H37Ra; type: toxicity; settings: read-out: Selectivity Index
[18] = Selectivity index, ratio of GI90 for human A549 cells to MIC90 for dormant state of Mycobacterium tuberculosis H37Ra; type: toxicity; settings: read-out: Selectivity Index
[19] = Selectivity index, ratio of GI90 for human HCT116 cells to MIC90 for dormant state of Mycobacterium tuberculosis H37Ra; type: toxicity; settings: read-out: Selectivity Index
[20] = Selectivity index, ratio of GI90 for human MCF7 cells to MIC90 for dormant state of dormant state of Mycobacterium bovis BCG; type: toxicity; settings: read-out: Selectivity Index
[21] = Selectivity index, ratio of GI90 for human A549 cells to MIC90 for dormant state of dormant state of Mycobacterium bovis BCG; type: toxicity; settings: read-out: Selectivity Index
[22] = Selectivity index, ratio of GI90 for human HCT116 cells to MIC90 for dormant state of dormant state of Mycobacterium bovis BCG; type: toxicity; settings: read-out: Selectivity Index
Escherichia coli = experiment: Antibacterial activity against Escherichia coli ATCC […] after 8 hrs; type: functional
Pseudomonas fluorescens = experiment: Antibacterial activity against Pseudomonas fluorescens ATCC 13525 after 8 hrs; type: functional; settings: ATCC 13525, 8 h
Staphylococcus aureus = experiment: Antibacterial activity against Staphylococcus aureus ATCC 29213 after 12 hrs; type: functional; settings: ATCC 29213, 12 h
Bacillus subtilis = experiment: Antibacterial activity against Bacillus subtilis ATCC 23857 after 12 hrs; type: functional; settings: ATCC 23857, 12 h

SMILES | MIC50 [1] | MIC90 [1] | inhibition of growth at 30 µg/mL [2] | inhibition of growth at 10 µg/mL [3] | inhibition of growth at 3 µg/mL [4] | inhibition at 48 h, 30 ug/ml [5] | inhibition at 48 h, 10 ug/ml [6] | inhibition at 48 h, 3 ug/ml [7] | inhibition at 48 h, 30 ug/ml [8] | inhibition at 48 h, 10 ug/ml [9] | inhibition at 48 h, 3 ug/ml [10] | inhibition at 48 h, 30 ug/ml [11] | inhibition at 48 h, 10 ug/ml [12] | inhibition at 48 h, 3 ug/ml [13] | GI50 at 48 h [14] | GI90 (MCF7) | GI50 at 48 h [15] | GI90 (A549) | GI50 at 48 h [16] | GI90 (HCT-116) | also measured
COc1ccc2cc(/C=C3\CNC/C(=C\c4cc5ccc(OC)cc5nc4Cl)C3=O)c(Cl)nc2c1 | 2.8 µg/mL (≈ 5.53 µM) | > 30 µg/mL | 65.6% | 54.2% | 50.9% | 60.9% | 52.1% | 28% | 36.3% | 29.8% | 3.8% | 67.7% | 50.9% | 26.9% | > 100 µg/mL | > 100 µg/mL | > 100 µg/mL | > 100 µg/mL | > 100 µg/mL | > 100 µg/mL | selectivity ratio [17]: > 3; selectivity ratio [18]: > 3; selectivity ratio [19]: > 3; selectivity ratio [20]: > 37; selectivity ratio [21]: > 37; selectivity ratio [22]: > 37; MIC50 (Escherichia coli): > 30 µg/mL; MIC90 (Escherichia coli): > 30 µg/mL; MIC50 (Pseudomonas fluorescens): > 30 µg/mL; MIC90 (Pseudomonas fluorescens): > 30 µg/mL; MIC50 (Staphylococcus aureus): > 30 µg/mL; MIC90 (Staphylococcus aureus): > 30 µg/mL; MIC50 (Bacillus subtilis): > 30 µg/mL; MIC90 (Bacillus subtilis): > 30 µg/mL
COc1ccc2cc(/C=C3\CN(C)C/C(=C\c4cc5ccc(OC)cc5nc4Cl)C3=O)c(Cl)nc2c1 | 2.3 µg/mL (≈ 4.42 µM) | 7.8 µg/mL (≈ 15 µM) | 98.9% | 100% | 66.1% | 44.1% | -5.5% | -13.4% | 0% | 0% | 0% | 14.1% | -1.3% | -8.6% | > 100 µg/mL | > 100 µg/mL | > 100 µg/mL | > 100 µg/mL | > 100 µg/mL | > 100 µg/mL | selectivity ratio [17]: > 12; selectivity ratio [18]: > 12; selectivity ratio [19]: > 12; selectivity ratio [20]: > 10; selectivity ratio [21]: > 10; selectivity ratio [22]: > 10; MIC50 (Escherichia coli): > 30 µg/mL; MIC90 (Escherichia coli): > 30 µg/mL; MIC50 (Pseudomonas fluorescens): > 30 µg/mL; MIC90 (Pseudomonas fluorescens): > 30 µg/mL; MIC50 (Staphylococcus aureus): > 30 µg/mL; MIC90 (Staphylococcus aureus): > 30 µg/mL; MIC50 (Bacillus subtilis): > 30 µg/mL; MIC90 (Bacillus subtilis): > 30 µg/mL
O=C1/C(=C/c2cc3cc(F)ccc3nc2Cl)CNC/C1=C\c1cc2cc(F)ccc2nc1Cl | 13.7 µg/mL (≈ 28.4 µM) | > 30 µg/mL | 76.9% | 49% | 41.1% | 48.5% | 41.1% | 40.9% | 0% | 0% | -5.8% | 55.8% | 45.3% | 35% | > 100 µg/mL | > 100 µg/mL | > 100 µg/mL | > 100 µg/mL | 27.6 µg/mL (≈ 57.1 µM) | > 100 µg/mL | selectivity ratio [17]: > 3; selectivity ratio [18]: > 3; selectivity ratio [19]: > 3; selectivity ratio [20]: > 10; selectivity ratio [21]: > 10; selectivity ratio [22]: > 10; MIC50 (Escherichia coli): > 30 µg/mL; MIC90 (Escherichia coli): > 30 µg/mL; MIC50 (Pseudomonas fluorescens): > 30 µg/mL; MIC90 (Pseudomonas fluorescens): > 30 µg/mL; MIC50 (Staphylococcus aureus): > 30 µg/mL; MIC90 (Staphylococcus aureus): > 30 µg/mL; MIC50 (Bacillus subtilis): > 30 µg/mL; MIC90 (Bacillus subtilis): > 30 µg/mL
CN1C/C(=C\c2cc3ccccc3nc2Cl)C(=O)/C(=C/c2cc3ccccc3nc2Cl)C1 | 6.7 µg/mL (≈ 14.6 µM) | 26.5 µg/mL (≈ 57.6 µM) | 98% | 51.9% | 15.6% | 35.1% | 24.3% | 11.4% | -16.9% | 0% | -14.6% | -20.1% | -15.2% | -0.3% | > 100 µg/mL | > 100 µg/mL | > 100 µg/mL | > 100 µg/mL | > 100 µg/mL | > 100 µg/mL | selectivity ratio [17]: > 3; selectivity ratio [18]: > 3; selectivity ratio [19]: > 3; selectivity ratio [20]: > 13; selectivity ratio [21]: > 13; selectivity ratio [22]: > 13; MIC50 (Escherichia coli): > 30 µg/mL; MIC90 (Escherichia coli): > 30 µg/mL; MIC50 (Pseudomonas fluorescens): > 30 µg/mL; MIC90 (Pseudomonas fluorescens): > 30 µg/mL; MIC50 (Staphylococcus aureus): > 30 µg/mL; MIC90 (Staphylococcus aureus): > 30 µg/mL; MIC50 (Bacillus subtilis): > 30 µg/mL; MIC90 (Bacillus subtilis): > 30 µg/mL
Cc1ccc2cc(/C=C3\CN(C)C/C(=C\c4cc5ccc(C)cc5nc4Cl)C3=O)c(Cl)nc2c1 | 7.7 µg/mL (≈ 15.8 µM) | 20 µg/mL (≈ 40.9 µM) | 98.6% | 81.7% | -17.1% | 63.7% | 52% | 46.1% | 45.7% | 34.6% | 30.2% | 27.4% | 13.7% | 12.9% | 8.23 µg/mL (≈ 16.9 µM) | > 100 µg/mL | > 100 µg/mL | > 100 µg/mL | > 100 µg/mL | > 100 µg/mL | MIC50 (Escherichia coli): > 30 µg/mL; MIC90 (Escherichia coli): > 30 µg/mL; MIC50 (Pseudomonas fluorescens): > 30 µg/mL; MIC90 (Pseudomonas fluorescens): > 30 µg/mL; MIC50 (Staphylococcus aureus): > 30 µg/mL; MIC90 (Staphylococcus aureus): > 30 µg/mL; MIC50 (Bacillus subtilis): > 30 µg/mL; MIC90 (Bacillus subtilis): > 30 µg/mL
CN1C/C(=C\c2cc3cc(Cl)ccc3nc2Cl)C(=O)/C(=C/c2cc3cc(Cl)ccc3nc2Cl)C1 | > 30 µg/mL | > 30 µg/mL | 43.1% | 7.2% | 35.4% | 58.7% | 42.8% | 22.8% | 48.9% | 48.9% | 0% | 11.7% | 11.9% | 2% | 29.8 µg/mL (≈ 56.3 µM) | > 100 µg/mL | > 100 µg/mL | > 100 µg/mL | > 100 µg/mL | > 100 µg/mL | MIC50 (Escherichia coli): > 30 µg/mL; MIC90 (Escherichia coli): > 30 µg/mL; MIC50 (Pseudomonas fluorescens): > 30 µg/mL; MIC90 (Pseudomonas fluorescens): > 30 µg/mL; MIC50 (Staphylococcus aureus): > 30 µg/mL; MIC90 (Staphylococcus aureus): > 30 µg/mL; MIC50 (Bacillus subtilis): > 30 µg/mL; MIC90 (Bacillus subtilis): > 30 µg/mL
CO[C@H]1/C=C/O[C@@]2(C)Oc3c(C)c(O)c4c(O)c(c(/C=N/N5CCN(C)CC5)c(O)c4c3C2=O)NC(=O)/C(C)=C\C=C\[C@H](C)[C@H](O)[C@@H](C)[C@@H](O)[C@@H](C)[C@H](OC(C)=O)[C@@H]1C [RIFAMPIN] | 0.0019 µg/mL (≈ 0.00231 µM) | 0.02 µg/mL (≈ 0.0243 µM) |  |  |  |  |  |  |  |  |  |  |  |  | > 100 µg/mL | > 100 µg/mL | > 100 µg/mL | > 100 µg/mL | > 100 µg/mL | > 100 µg/mL | selectivity ratio [17]: > 133; selectivity ratio [18]: > 133; selectivity ratio [19]: > 133; selectivity ratio [20]: > 123; selectivity ratio [21]: > 123; selectivity ratio [22]: > 123

Reference: ChEMBL document CHEMBL4002627, “Quinolidene based monocarbonyl curcumin analogues as promising antimycobacterial agents: Synthesis and molecular docking study” (Bioorg Med Chem Lett, 2017)
